The source made the active and inactive calls. No cut-off for these calls is given here.
Tests used:
[1] = tested on: HeLa; experiment: Antiproliferative activity against human HeLa cells after 48 hrs by MTT assay; assay type: functional, cell-based
[2] = tested on: B16; experiment: Antiproliferative activity against mouse B16 cells after 48 hrs by MTT assay; assay type: functional, cell-based; details: B16, 48 h
[3] = tested on: DU-145; experiment: Antiproliferative activity against human DU145 cells after 48 hrs by MTT assay; assay type: functional, cell-based; details: DU-145, 48 h
[4] = tested on: A549; experiment: Antiproliferative activity against human A549 cells after 48 hrs by MTT assay; assay type: functional, cell-based; details: A549, 48 h
[5] = tested on: A549; experiment: Induction of apoptosis in human A549 cells assessed as late apoptotic cells at 1 uM after 48 hrs by annexin V-FITC and propidium iodide double staining based flow cytometric analysis (reference value: 0.14%); assay type: functional
[6] = tested on: A549; experiment: Cell cycle arrest in human A549 cells assessed as accumulation at G0/G1 phase at 1 uM after 48 hrs by propidium iodide based flow cytometry (reference value: 85.63%); assay type: functional
[7] = tested on: A549; experiment: Cell cycle arrest in human A549 cells assessed as accumulation at sub G1 phase at 1 uM after 48 hrs by propidium iodide based flow cytometry (reference value: 0.65%); assay type: functional
[8] = tested on: A549; experiment: Induction of apoptosis in human A549 cells assessed as early apoptotic cells at 1 uM after 48 hrs by annexin V-FITC and propidium iodide double staining based flow cytometric analysis (reference value: 0%); assay type: functional
[9] = target: Tubulin (Sus scrofa) (UniProt P02554+P02550); experiment: Inhibition of porcine brain tubulin polymerization at 3 uM after 1 hr by fluorescence assay
Sequence of Tubulin (Sus scrofa) (P02550 whole entry, looked up): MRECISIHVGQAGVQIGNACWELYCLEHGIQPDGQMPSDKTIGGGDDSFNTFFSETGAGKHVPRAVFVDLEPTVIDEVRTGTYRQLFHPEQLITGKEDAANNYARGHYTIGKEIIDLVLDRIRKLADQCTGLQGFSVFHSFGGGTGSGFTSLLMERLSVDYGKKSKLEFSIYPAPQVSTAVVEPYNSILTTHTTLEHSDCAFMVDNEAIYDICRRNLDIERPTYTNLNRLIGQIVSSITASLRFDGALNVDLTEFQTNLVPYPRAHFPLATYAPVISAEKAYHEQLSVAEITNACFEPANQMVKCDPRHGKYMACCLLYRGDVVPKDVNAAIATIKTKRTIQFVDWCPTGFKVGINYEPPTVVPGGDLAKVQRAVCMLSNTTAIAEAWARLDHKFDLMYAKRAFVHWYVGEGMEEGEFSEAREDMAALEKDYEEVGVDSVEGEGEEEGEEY
Sequence of Tubulin (Sus scrofa) (P02554 whole entry, looked up): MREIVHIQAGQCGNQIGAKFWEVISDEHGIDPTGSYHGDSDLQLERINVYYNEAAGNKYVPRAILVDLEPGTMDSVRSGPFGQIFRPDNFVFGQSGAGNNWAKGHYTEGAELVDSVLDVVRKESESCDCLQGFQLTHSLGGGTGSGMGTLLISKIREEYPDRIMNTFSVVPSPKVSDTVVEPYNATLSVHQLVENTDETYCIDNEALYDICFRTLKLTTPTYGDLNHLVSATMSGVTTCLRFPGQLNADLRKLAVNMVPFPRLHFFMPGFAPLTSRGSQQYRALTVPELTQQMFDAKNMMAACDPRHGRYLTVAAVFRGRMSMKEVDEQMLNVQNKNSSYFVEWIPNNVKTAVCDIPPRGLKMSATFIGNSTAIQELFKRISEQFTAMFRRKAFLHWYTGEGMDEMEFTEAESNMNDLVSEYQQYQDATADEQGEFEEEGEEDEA

[10] = tested on: A549; experiment: Cell cycle arrest in human A549 cells assessed as accumulation at S phase at 1 uM after 48 hrs by propidium iodide based flow cytometry (reference value: 3.59%); assay type: functional
[11] = tested on: A549; experiment: Cell cycle arrest in human A549 cells assessed as accumulation at G2/M phase at 1 uM after 48 hrs by propidium iodide based flow cytometry (reference value: 10.39%); assay type: functional
[12] = tested on: A549; experiment: Induction of apoptosis in human A549 cells assessed as viable cells at 1 uM after 48 hrs by annexin V-FITC and propidium iodide double staining based flow cytometric analysis (reference value: 99.79%); assay type: functional; details: A549, 48 h, read-out: Activity
[13] = tested on: A549; experiment: Induction of apoptosis in human A549 cells assessed as dead cells at 1 uM after 48 hrs by annexin V-FITC and propidium iodide double staining based flow cytometric analysis (Rvb =0.07%); assay type: functional
[14] = tested on: A549; experiment: Induction of apoptosis in human A549 cells assessed as nuclear fragmentation at 1 uM after 48 hrs by Hoechst 33342 based fluorescent microscopic analysis; assay type: functional, cell-based
[15] = tested on: A549; experiment: Cell cycle arrest in human A549 cells assessed as accumulation at sub G1 phase at 2 uM after 48 hrs by propidium iodide based flow cytometry (reference value: 0.65%); assay type: functional
[16] = tested on: A549; experiment: Induction of apoptosis in human A549 cells assessed as caspase-3 activation at 1 uM after 48 hrs by Ac-DEVD substrate based fluorescence assay relative to control; assay type: functional
[17] = tested on: A549; experiment: Induction of apoptosis in human A549 cells assessed as apoptotic bodies at 1 uM after 48 hrs by Hoechst 33342 based fluorescent microscopic analysis; assay type: functional, cell-based
[18] = tested on: A549; experiment: Cell cycle arrest in human A549 cells assessed as accumulation at G2/M phase at 2 uM after 48 hrs by propidium iodide based flow cytometry (reference value: 10.39%); assay type: functional
[19] = tested on: A549; experiment: Induction of apoptosis in human A549 cells assessed as viable cells at 2 uM after 48 hrs by annexin V-FITC and propidium iodide double staining based flow cytometric analysis (reference value: 99.79%); assay type: functional; details: A549, 48 h, read-out: Activity
[20] = tested on: A549; experiment: Induction of apoptosis in human A549 cells assessed as caspase-3 activation at 2 uM after 48 hrs by Ac-DEVD substrate based fluorescence assay relative to control; assay type: functional
[21] = tested on: A549; experiment: Induction of apoptosis in human A549 cells assessed as early apoptotic cells at 2 uM after 48 hrs by annexin V-FITC and propidium iodide double staining based flow cytometric analysis (reference value: 0%); assay type: functional
[22] = tested on: A549; experiment: Induction of apoptosis in human A549 cells assessed as DNA fragmentation at 1 uM after 48 hrs by ethidium bromide based agarose gel electrophoresis; assay type: functional, cell-based
[23] = tested on: A549; experiment: Cell cycle arrest in human A549 cells assessed as accumulation at G0/G1 phase at 2 uM after 48 hrs by propidium iodide based flow cytometry (reference value: 85.63%); assay type: functional
[24] = tested on: A549; experiment: Induction of apoptosis in human A549 cells assessed as dead cells at 2 uM after 48 hrs by annexin V-FITC and propidium iodide double staining based flow cytometric analysis (Rvb =0.07%); assay type: functional
[25] = tested on: A549; experiment: Inhibition of microtubule organization in human A549 cells at 1 uM after 48 hrs by immunofluorescence microscopic analysis; assay type: cell-based
[26] = tested on: A549; experiment: Induction of apoptosis in human A549 cells assessed as late apoptotic cells at 2 uM after 48 hrs by annexin V-FITC and propidium iodide double staining based flow cytometric analysis (reference value: 0.14%); assay type: functional
[27] = tested on: A549; experiment: Cell cycle arrest in human A549 cells assessed as accumulation at S phase at 2 uM after 48 hrs by propidium iodide based flow cytometry (reference value: 3.59%); assay type: functional
[28] = tested on: A549; experiment: Induction of apoptosis in human A549 cells assessed as […] condensation at 1 uM after 48 hrs by Hoechst 33342 based fluorescent microscopic analysis; assay type: functional, cell-based
[29] = target: Tubulin (Sus scrofa, UniProt P02554+P02550); experiment: Inhibition of porcine brain tubulin polymerization after 1 hr by fluorescence assay

SMILES: COc1ccc(-c2nc3ccccn3c2-c2nc3ccc(F)cc3[nH]2)cc1
- IC50 [1]: 17.6 µM
- IC50 [2]: 14.8 µM
- IC50 [3]: 15.9 µM
- IC50 [4]: 14.6 µM

SMILES: Fc1ccc(-c2nc3ncccn3c2-c2nc3ccc(Cl)cc3[nH]2)cc1
- IC50 [1]: 20.3 µM
- IC50 [2]: > 30 µM
- IC50 [3]: 12.6 µM
- IC50 [4]: 19.7 µM

SMILES: COc1ccc2nc(-c3c(-c4ccc(F)cc4)nc4ncccn34)[nH]c2c1
- IC50 [1]: 19.9 µM
- IC50 [2]: > 30 µM
- IC50 [3]: 16 µM
- IC50 [4]: 18.6 µM

SMILES: Clc1ccc2nc(-c3c(-c4ccccc4)nc4ncccn34)[nH]c2c1
- IC50 [1]: > 30 µM
- IC50 [2]: > 30 µM
- IC50 [3]: > 30 µM
- IC50 [4]: > 30 µM

SMILES: COc1ccc(-c2nc3ccccn3c2-c2nc3ccc(Cl)cc3[nH]2)cc1
- IC50 [1]: 14.5 µM
- IC50 [2]: 16 µM
- IC50 [3]: 19.5 µM
- IC50 [4]: 19.4 µM

SMILES: COc1ccc(-c2nc3ncccn3c2-c2nc3ccc(F)cc3[nH]2)cc1
- IC50 [1]: 17 µM
- IC50 [2]: 19.4 µM
- IC50 [3]: 13.8 µM
- IC50 [4]: 15.1 µM

SMILES: COc1ccc2nc(-c3c(-c4ccccc4)nc4ncccn34)[nH]c2c1
- IC50 [1]: 9.33 µM
- IC50 [2]: 10.2 µM
- IC50 [3]: 3.71 µM
- IC50 [4]: 2.12 µM

SMILES: COC(=O)Nc1nc2cc(C(=O)c3cccs3)ccc2[nH]1 [NOCODAZOLE]
- IC50 [1]: 2.23 µM
- Activity [5]: 1.29%
- Activity [6]: 63.76%
- Activity [7]: 9.23%
- Activity [8]: 11.71%
- IC50 [2]: 0.69 µM
- IC50 [3]: 0.25 µM
- inhibition [9]: 66.9%
- Activity [10]: 0.69%
- Activity [11]: 24.28%
- viability at 1 µM [12]: 87%
- Activity [13]: 0.04%
- IC50 [4]: 1.62 µM

SMILES: COc1ccc(-c2nc3ncccn3c2-c2nc3ccc(Cl)cc3[nH]2)cc1
- IC50 [1]: 14 µM
- IC50 [2]: 26.8 µM
- IC50 [3]: 19.9 µM
- IC50 [4]: 10.2 µM

SMILES: COc1ccc(-c2nc3ncccn3c2-c2nc3ccc(C)cc3[nH]2)cc1
- Activity [14]: Active
- IC50 [1]: 2.57 µM
- Activity [15]: 2.19%
- fold change (FC) [16]: 2
- Activity [5]: 1.43%
- Activity [17]: Active
- Activity [18]: 29%
- Activity [6]: 82.68%
- viability at 2 µM [19]: 85.1%
- fold change (FC) [20]: 2
- Activity [21]: 13.49%
- Activity [22]: Active
- Activity [7]: 0.76%
- Activity [8]: 8.18%
- IC50 [2]: 3.63 µM
- IC50 [3]: 7.08 µM
- inhibition [9]: 61.1%
- Activity [23]: 59.33%
- Activity [10]: 3.65%
- Activity [24]: 0.07%
- inhibition [25]: Active
- Activity [11]: 11.7%
- Activity [26]: 1.3%
- viability at 1 µM [12]: 90.2%
- Activity [13]: 0.22%
- IC50 [4]: 1.48 µM
- Activity [27]: 3.63%
- Activity [28]: Active
- IC50 [29]: 2.06 µM

SMILES: c1ccc(-c2nc3ncccn3c2-c2nc3ccccc3[nH]2)cc1
- Activity [14]: Active
- IC50 [1]: 2.25 µM
- Activity [15]: 2.7%
- fold change (FC) [16]: 2
- Activity [5]: 2.69%
- Activity [17]: Active
- Activity [18]: 33.8%
- Activity [6]: 83.5%
- viability at 2 µM [19]: 88.4%
- fold change (FC) [20]: 2
- Activity [21]: 10.25%
- Activity [22]: Active
- Activity [7]: 1.28%
- Activity [8]: 5.08%
- IC50 [2]: 10.5 µM
- IC50 [3]: 2.34 µM
- inhibition [9]: 60.5%
- Activity [23]: 64.8%
- Activity [10]: 3.71%
- Activity [24]: 0.18%
- inhibition [25]: Active
- Activity [11]: 12.6%
- Activity [26]: 1.2%
- viability at 1 µM [12]: 91.9%
- Activity [13]: 0.35%
- IC50 [4]: 1.92 µM
- Activity [27]: 2.88%
- Activity [28]: Active
- IC50 [29]: 2.26 µM

SMILES: COc1ccc(-c2nc3ccccn3c2-c2nc3ccccc3[nH]2)cc1
- IC50 [1]: 20.4 µM
- IC50 [2]: > 30 µM
- IC50 [3]: 24 µM
- IC50 [4]: 23.2 µM

SMILES: Fc1ccc(-c2nc3ncccn3c2-c2nc3ccc(F)cc3[nH]2)cc1
- IC50 [1]: 15.3 µM
- IC50 [2]: 15.6 µM
- IC50 [3]: 14.4 µM
- IC50 [4]: 19.2 µM

SMILES: COc1ccc(-c2nc3ncccn3c2-c2nc3ccccc3[nH]2)cc1
- IC50 [1]: 9.06 µM
- IC50 [2]: 16.7 µM
- IC50 [3]: 13.2 µM
- IC50 [4]: 10.5 µM

SMILES: Fc1ccc2nc(-c3c(-c4ccccc4)nc4ncccn34)[nH]c2c1
- IC50 [1]: 6.91 µM
- IC50 [2]: 17 µM
- IC50 [3]: 4.89 µM
- IC50 [4]: 8.51 µM

SMILES: COc1ccc(-c2nc3ccccn3c2-c2nc3ccc(C)cc3[nH]2)cc1
- IC50 [1]: 26.4 µM
- IC50 [2]: > 30 µM
- IC50 [3]: > 30 µM
- IC50 [4]: > 30 µM

SMILES: COc1ccc(-c2nc3ccccn3c2-c2nc3ccc(OC)cc3[nH]2)cc1
- IC50 [1]: > 30 µM
- IC50 [2]: > 30 µM
- IC50 [3]: > 30 µM
- IC50 [4]: > 30 µM

SMILES: Fc1ccc(-c2nc3ncccn3c2-c2nc3ccccc3[nH]2)cc1
- IC50 [1]: 8.19 µM
- IC50 [2]: 16.6 µM
- IC50 [3]: 7.78 µM
- IC50 [4]: 11 µM

SMILES: Cc1ccc2nc(-c3c(-c4ccc(F)cc4)nc4ncccn34)[nH]c2c1
- IC50 [1]: 12.9 µM
- IC50 [2]: 15.1 µM
- IC50 [3]: 10.2 µM
- IC50 [4]: > 30 µM

SMILES: COc1ccc(-c2nc3ncccn3c2-c2nc3ccc(OC)cc3[nH]2)cc1
- IC50 [1]: 15.8 µM
- IC50 [2]: 19.9 µM
- IC50 [3]: 5.62 µM
- IC50 [4]: 6.91 µM

SMILES: Cc1ccc2nc(-c3c(-c4ccccc4)nc4ncccn34)[nH]c2c1
- IC50 [1]: 7.58 µM
- IC50 [2]: 8.91 µM
- IC50 [3]: 2.34 µM
- IC50 [4]: 2.19 µM

— ChEMBL document CHEMBL3632478, “Design, synthesis and biological evaluation of imidazopyridine/imidazopyrimidine-benzimidazole conjugates as potential anticancer agents” (Medchemcomm, 2015)
